Laboratory results as given in ChEMBL document CHEMBL4033626, “Design, synthesis, and structure-activity relationship study of halogen containing 2-benzylidene-1-indanone derivatives for inhibition of LPS-stimulated ROS production in RAW 264.7 macrophages” (Eur J Med Chem, 2017).
Calls of active or inactive are those of the source. The calls are words filed in the database; no cut-off is given here.

Columns and labels:
RAW264.7 [1] = test: Inhibition of LPS-stimulated ROS production in mouse RAW264.7 cells preincubated for 1 hr followed by LPS stimulation after 24 hrs by CMH2DCFDA probe-based fluorescence assay
RAW264.7 [2] = test: Cytotoxicity against mouse RAW264.7 cells at 10 uM after 24 hrs by MTS assay; assay type: cell-based; conditions: raw264.7, 24 h
[3] = Cytotoxicity against mouse RAW264.7 cells assessed as cell viability at 10 uM after 24 hrs by MTS assay relative to control; assay type: cell-based; conditions: read-out: Activity
Mus musculus = organism: Mus musculus; test: Inhibition of LPS-stimulated NADPH oxidase activation in mouse RAW264.7 cells assessed as decrease in superoxide formation at 1 uM using NADPH as substrate preincubated for 1 hr followed by LPS stimulation for 24 hrs and subsequent substrate addition after 30 mins by lucigenin-based chemiluminescence assay; assay type: cell-based

| SMILES | IC50 (RAW264.7 [1]) | Activity (RAW264.7 [2]) | viability at 24 h, 10 µM [3] | inhibition (Mus musculus) |
| --- | --- | --- | --- | --- |
| O=C1/C(=C/c2ccccc2F)Cc2cc(O)ccc21 | > 10 µM | Non-Toxic |  |  |
| O=C1/C(=C/c2ccc(C(F)(F)F)cc2)Cc2cccc(O)c21 | 3.89 µM | Non-Toxic |  |  |
| O=C1/C(=C/c2ccccc2Br)Cc2cc(O)ccc21 | 8.18 µM | Non-Toxic |  |  |
| O=C1/C(=C/c2ccccc2Br)Cc2ccccc21 | > 10 µM | Non-Toxic |  |  |
| O=C1/C(=C/c2ccccc2OC(F)(F)F)Cc2cccc(O)c21 | 3.25 µM | Non-Toxic |  |  |
| O=C1/C(=C/c2cccc(Br)c2)Cc2cc(O)ccc21 | 4.05 µM | Non-Toxic |  |  |
| O=C1/C(=C/c2ccc(F)cc2)Cc2cc(O)ccc21 | > 10 µM | Non-Toxic |  |  |
| O=C1/C(=C/c2ccccc2OC(F)(F)F)Cc2ccccc21 | 7.27 µM | Non-Toxic |  |  |
| O=C1/C(=C/c2ccc(OC(F)(F)F)cc2)Cc2ccccc21 | > 10 µM | Non-Toxic |  |  |
| O=C1/C(=C/c2ccc(F)cc2)Cc2cccc(O)c21 | 5.06 µM | Non-Toxic |  |  |
| O=C1/C(=C/c2cccc(Br)c2)Cc2c(O)cccc21 | > 10 µM | Non-Toxic |  |  |
| O=C1/C(=C/c2cccc(Br)c2)Cc2ccccc21 | > 10 µM | Non-Toxic |  |  |
| O=C1/C(=C/c2ccccc2F)Cc2ccc(O)cc21 | > 10 µM | Non-Toxic |  |  |
| O=C1/C(=C/c2ccc(OC(F)(F)F)cc2)Cc2ccc(O)cc21 | > 10 µM | Non-Toxic |  |  |
| O=C1/C(=C/c2ccccc2F)Cc2c(O)cccc21 | > 10 µM | Non-Toxic |  |  |
| O=C1/C(=C/c2ccc(Br)cc2)Cc2ccc(O)cc21 | 4.27 µM |  | < 90% |  |
| O=C1/C(=C/c2ccccc2Br)Cc2cccc(O)c21 | > 10 µM | Non-Toxic |  |  |
| O=C1/C(=C/c2ccccc2Br)Cc2c(O)cccc21 | > 10 µM | Non-Toxic |  |  |
| O=C1/C(=C/c2cccc(C(F)(F)F)c2)Cc2c(O)cccc21 | > 10 µM | Non-Toxic |  |  |
| O=C1/C(=C/c2ccccc2F)Cc2cccc(O)c21 | 3.82 µM | Non-Toxic |  |  |
| O=C1/C(=C/c2cccc(Br)c2)Cc2cccc(O)c21 | > 10 µM | Non-Toxic |  |  |

| SMILES | IC50 (RAW264.7 [1]) | Activity (RAW264.7 [2]) | viability at 24 h, 10 µM [3] | inhibition (Mus musculus) |
| --- | --- | --- | --- | --- |
| O=C1/C(=C/c2ccccc2C(F)(F)F)Cc2c(O)cccc21 | > 10 µM | Non-Toxic |  |  |
| O=C1/C(=C/c2cccc(F)c2)Cc2ccc(O)cc21 | > 10 µM | Non-Toxic |  |  |
| O=C1/C(=C/c2ccc(C(F)(F)F)cc2)Cc2ccccc21 | > 10 µM | Non-Toxic |  |  |
| O=C1/C(=C/c2ccc(F)cc2)Cc2ccc(O)cc21 | > 10 µM | Non-Toxic |  |  |
| O=C1/C(=C/c2cccc(Br)c2)Cc2ccc(O)cc21 | 3.9 µM | Non-Toxic |  |  |
| O=C1/C(=C/c2ccccc2F)Cc2ccccc21 | > 10 µM | Non-Toxic |  |  |
| O=C1/C(=C/c2ccccc2OC(F)(F)F)Cc2c(O)cccc21 | > 10 µM | Non-Toxic |  |  |
| O=C1/C(=C/c2ccc(OC(F)(F)F)cc2)Cc2cc(O)ccc21 | > 10 µM | Non-Toxic |  |  |
| O=C1/C(=C/c2ccc(Br)cc2)Cc2cccc(O)c21 | > 10 µM | Non-Toxic |  |  |
| O=C1/C(=C/c2ccccc2C(F)(F)F)Cc2cc(O)ccc21 | > 10 µM | Non-Toxic |  |  |
| O=C1/C(=C/c2cccc(C(F)(F)F)c2)Cc2ccccc21 | > 10 µM | Non-Toxic |  |  |
| O=C1/C(=C/c2cccc(OC(F)(F)F)c2)Cc2cc(O)ccc21 | 8.01 µM | Non-Toxic |  |  |
| O=C1/C(=C/c2ccccc2C(F)(F)F)Cc2cccc(O)c21 | 1.94 µM | Non-Toxic |  |  |
| O=C1/C(=C/c2ccccc2)Cc2ccccc21 | > 10 µM |  | < 90% |  |
| O=C1/C(=C/c2ccccc2C(F)(F)F)Cc2ccc(O)cc21 | 2.61 µM | Non-Toxic |  |  |
| O=C1/C(=C/c2ccc(Br)cc2)Cc2ccccc21 | > 10 µM | Non-Toxic |  |  |
| O=C1/C(=C/c2ccccc2C(F)(F)F)Cc2ccccc21 | > 10 µM | Non-Toxic |  |  |
| O=C1/C(=C/c2ccc(C(F)(F)F)cc2)Cc2c(O)cccc21 | > 10 µM | Non-Toxic |  |  |
| O=C1/C(=C/c2cccc(OC(F)(F)F)c2)Cc2cccc(O)c21 | 4.62 µM | Non-Toxic |  |  |
| O=C1/C(=C/c2cccc(F)c2)Cc2c(O)cccc21 | > 10 µM | Non-Toxic |  |  |
| O=C1/C(=C/c2cccc(F)c2)Cc2cccc(O)c21 | 5.61 µM | Non-Toxic |  |  |

| SMILES | IC50 (RAW264.7 [1]) | Activity (RAW264.7 [2]) | viability at 24 h, 10 µM [3] | inhibition (Mus musculus) |
| --- | --- | --- | --- | --- |
| O=C1/C(=C/c2cccc(C(F)(F)F)c2)Cc2cccc(O)c21 | > 10 µM | Non-Toxic |  |  |
| O=C1/C(=C/c2cccc(OC(F)(F)F)c2)Cc2ccccc21 | > 10 µM | Non-Toxic |  |  |
| O=C1/C(=C/c2cccc(F)c2)Cc2cc(O)ccc21 | > 10 µM | Non-Toxic |  |  |
| O=C1/C(=C/c2ccc(Br)cc2)Cc2cc(O)ccc21 | 6.05 µM | Non-Toxic |  |  |
| O=C1/C(=C/c2ccc(OC(F)(F)F)cc2)Cc2cccc(O)c21 | 3.15 µM | Non-Toxic |  |  |
| O=C1/C(=C/c2ccc(C(F)(F)F)cc2)Cc2ccc(O)cc21 | > 10 µM | Non-Toxic |  |  |
| O=C1/C(=C/c2cccc(OC(F)(F)F)c2)Cc2ccc(O)cc21 | > 10 µM | Non-Toxic |  |  |
| O=C1/C(=C/c2cccc(OC(F)(F)F)c2)Cc2c(O)cccc21 | > 10 µM | Non-Toxic |  |  |
| O=C1/C(=C/c2cccc(C(F)(F)F)c2)Cc2cc(O)ccc21 | > 10 µM | Non-Toxic |  |  |
| O=C1/C(=C/c2ccccc2OC(F)(F)F)Cc2cc(O)ccc21 | 3.38 µM | Non-Toxic |  |  |
| O=C1/C(=C/c2ccccc2Br)Cc2ccc(O)cc21 | 4 µM | Non-Toxic |  |  |
| O=C1/C(=C/c2ccc(Br)cc2)Cc2c(O)cccc21 | > 10 µM | Non-Toxic |  |  |
| O=C1/C(=C/c2cccc(F)c2)Cc2ccccc21 | > 10 µM | Non-Toxic |  |  |
| O=C1/C(=C/c2ccccc2OC(F)(F)F)Cc2ccc(O)cc21 | 1.33 µM | Non-Toxic |  | Active |
| O=C1/C(=C/c2ccc(F)cc2)Cc2c(O)cccc21 | > 10 µM | Non-Toxic |  |  |
| O=C1/C(=C/c2cccc(C(F)(F)F)c2)Cc2ccc(O)cc21 | 4.55 µM | Non-Toxic |  |  |
| O=C1/C(=C/c2ccc(C(F)(F)F)cc2)Cc2cc(O)ccc21 | 5.55 µM | Non-Toxic |  |  |
| O=C1/C(=C/c2ccc(OC(F)(F)F)cc2)Cc2c(O)cccc21 | > 10 µM | Non-Toxic |  |  |
| O=C1/C(=C/c2ccc(F)cc2)Cc2ccccc21 | > 10 µM | Non-Toxic |  |  |
